From patent US6872541B2, “Method and compositions for analysis of pentraxin receptors as indicators of disease” (Coulter International Corp., priority 2001, dated 2005)
Where two headings read alike, the source gives them in different places. Values belong to the molecule of their own block, whether it stands above or below them.

Key:
[1] = system: peripheral blood monocytes; assay: inhibition of bCRP binding to peripheral blood monocytes; conditions: added before staining: 50 μgs CRP, 50 μgs SAP, 10 mM EDTA, 100 μgs PC, human IgG
Description: (§1) Normal peripheral blood and second sample peripheral blood samples were drawn into EDTA containing tubes, unless noted, and stored at room temperature. Blood was stained within 10 hours of collection. […] In addition the removal of the plasma and red cells allowed calcium to be incorporated into the buffer system without subsequent clotting. Lysis was accomplished either by adding a volume of 3 mL of ammonium chloride (Sigma) containing EDTA (Sigma) solution to each 100 μL whole blood for 10 minutes at room temperature or by using the automated T-QPrep Workstation with the ImmunoPrep Reagent System (Coulter Corporation). The ImmunoPrep Reagent System consists of an acid lyse, followed by neutralization and fixation. The lysed blood was centrifuged, the supernatant decanted and the remaining white cell pellet resuspended in 100 μL 0.01M HEPES (Sigma)—0.15M sodium chloride containing 2% Fetal Calf Serum and 2 mM calcium chloride (Sigma), pH 7.4 (HSFC). […] At the end of this time SA-DTAF at a 1:500 dilution (3.6 μg) and 10-20 μL of the appropriate antibody or isotype combination was added for an additional 15 minutes on ice. Cells were then washed with 3 mL HSFC, centrifuged and resuspended to 1 mL in HSFC (0.3% paraformaldehyde was added to ammonium chloride-lysed cells). Stained cells were kept on ice and analyzed within the hour.

THP-1 cells [2] = assay: inhibition of the binding of bCRP to THP-1 cells; parameters: species or system human; conditions: for effect on binding of bCRP to THP-1 cells: washed assay, 5 mM EDTA in the primary incubation, PC inclusion or exclusion from the reaction mixture
Excerpt: Staining proceeded using the previously determined optimal non-washed conditions. […] All other staining conditions were as previously described using bHSA as the control.

[3] = biological target: CRP receptor (pentraxin-binding moiety) on human monocytes and myelomonocytic cell lines (human); assay: inhibition of bCRP (about 1 µg/mL) binding to THP-1 cells, flow cytometry, non-washed assay
monocytes = conditions: cited from earlier work
PMN = conditions: cited from earlier work
lymphocytes = conditions: cited from earlier work
KG-1a cells = assay: flow cytometric ligand binding assay of bCRP:SA-DTAF on cell lines; parameters: species or system human; conditions: washed assay
Description: (§2) Flow cytometric analysis was performed immediately.

U937 cells = assay: as above; parameters: species or system human; conditions: washed assay
Description: as §2

Raji cells = assay: as above; parameters: species or system human
Description: as §2

Daudi cells = assay: as above; parameters: species or system human; conditions: washed assay
Description: as §2

NK cells (CD56+CD16+) = assay: three color flow cytometric analysis of bCRP binding in fresh peripheral blood; parameters: species or system human; conditions: lymphocyte scatter
Description: (§3) Blood was stained within 10 hours of collection.

[4] = system: peripheral blood monocytes; assay: flow cytometric binding of bCRP:SA-DTAF to peripheral blood monocytes; parameters: species or system human
Description: as §3
This concentration was used for all subsequent staining. Freshly drawn blood was evaluated within 30 to 60 minutes of collection and examined with specific markers identifying cell populations to ensure that the receptor binding pattern was similar to that obtained up to 10 hours later.
To ensure that enough monocytes were collected for the analysis stop counts were set to collect at least 1000 monocyte events based on forward and side scatter parameters.
Two individual donors were evaluated each day. The concentration of SA-DTAF was kept constant at a 1:500 dilution in HSFC (3.6 μgs). Peripheral blood monocyte binding was used to determine the optimal concentration. The percent positive values were expressed relative to the 2% cursor placed on the same population stained with the bHSA negative control. The choice of a 2% negative cursor instead of the RFI was made since a subset population was suspected due to the appearance of both a positive and negative stained monocyte population.
Single color, two or three-color staining was used along with monocyte forward and side scatter parameters to enumerate the percentage of positively stained cells. A negative staining control, bHSA:SA-DTAF was always run to establish the negative cursor placement. […] The samples were then evaluated for any differences in result due to gender, ethnic origin or age. […] No significant pattern or correlation was observed between the ages of 24 to 65 years and the binding of CRP to monocytes.

HL-60 cells = assay: flow cytometric ligand binding assay of bCRP:SA-DTAF on untreated, DMSO- or PMA-induced cells; parameters: species or system human
Description: as §2
HL-60 was induced towards either the granulocyte or monocyte pathway with DMSO or phorbol-12-myristate-13-acetate (PMA), respectively. To induce the myelocyte differentiation pathway of HL-60 cells into mature myelocytes or monocytes, a concentration of 1.2% DMSO (Baxter Research, Midvale, Utah) included in the media was added to 2.5×10^5 cells/mL for 6 to 14 days. Monocyte differentiation of HL60 cells was promoted by exposing 5×10^5 cells/mL to 16 nM PMA for 48-72 hours prior to harvest. Untreated cells were always harvested along with the treated cells on the day of testing. A control using the same concentration of PMA dissolution media (DMSO) was also monitored. Viability of cells was determined by trypan blue exclusion and was always greater than 95% except for PMA treated cells that consistently were at 84% due to removal of the adherent cells from the flask via scraping. Prior to staining, the cells were washed with 10 mM HEPES, 150 mM sodium chloride buffer, pH 7.4 containing 0.01% sodium azide, 2% heat-inactivated fetal calf serum and 2 mM calcium chloride (HSFC) and resuspended to 1×10^7 cells/mL.

THP-1 cells [5] = system: THP-1 cells
Description: (§5) After 30 minutes on ice the exposed cells were either washed with 3 mL cold HFCS, centrifuged at 500×g for 3 minutes and resuspended in 100 μL cold HSFC, or left alone to compare washed and non-washed systems. Freshly diluted SA-DTAF in HSFC, 100 μL (9 μg SA-DTAF), was then added to the tubes and incubation proceeded for another 15 minutes on ice protected from light. The stained cells were washed using 3 mL cold HSFC, centrifuged at 500×g for 3 minutes and resuspended in 1 mL cold HSFC containing 0.3% paraformaldehyde (Sigma). Flow cytometric analysis was performed immediately.
(§6) The labeling reagent, SA-DTAF, was kept at a constant 1:200 dilution.
(§7) Target mean channels previously determined for cell lines stained with mouse IgG1-FITC were used to maintain consistency of values. The same fluorescent settings for FITC emission (LFL1) were used for all cell lines to enable direct comparison of median fluorescent intensities. […] Since cell lines consist of a relatively uniform population of cells, a Relative Fluorescent Index (RFI) comparing the level of fluorescence to the negative control was used as a more accurate representation of binding levels. The median value for the peak fluorescence (MdX) was used in place of the mean fluorescence intensity so that any skewed population shifts would be captured. […]

[6] = system: Granulocytes (CD13+ or CD16+); conditions: gated by scatter and CD13+ or CD16+
Description: as §1, with “Cells were then washed with 3 mL HSFC, centrifuged and resuspended to 1 mL in HSFC (0.3% paraformaldehyde was added to ammonium chloride-lysed cells).” left out, “hour. […]” for “hour.”
(§4) A total of six different normal blood samples were drawn, three individual donors on two separate occasions, and evaluated within 30-60 minutes of collection. […]

[7] = system: T cell populations (CD4+ or CD8+); conditions: lymphocyte scatter
Description: as §1, with “Cells were then washed with 3 mL HSFC, centrifuged and resuspended to 1 mL in HSFC (0.3% paraformaldehyde was added to ammonium chloride-lysed cells).” left out, “hour. […]” for “hour.”
as §4

MOLT-4 cells = conditions: washed assay
Description: as §5, §6, §7

[8] = biological target: CRP receptor (pentraxin-binding moiety) on human monocytes and myelomonocytic cell lines (human); assay: 50 µgs purified human SAP added before bCRP staining of peripheral blood monocytes, flow cytometry
[9] = biological target: isolated human peripheral blood monocytes; conditions: requirement for calcium, optimal pH 7.4; read-out: dissociation constant; cited from earlier work
[10] = biological target: CRP receptor (pentraxin-binding moiety) on human monocytes and myelomonocytic cell lines (human); assay: 50 µgs purified CRP added before bCRP staining of peripheral blood monocytes, flow cytometry

Molecule: O=C(O)CN(CCN(CC(=O)O)CC(=O)O)CC(=O)O [EDTA, reference compound]
inhibition of bCRP binding to peripheral blood monocytes [1]: ~98%
effect on binding of bCRP to THP-1 cells (THP-1 cells [2]): abolished

Molecule: C[N+](C)(C)CCOP(=O)(O)O [PC, phosphorylcholine, reference compound]
inhibition of bCRP binding to peripheral blood monocytes [1]: ~1%
effect on binding of bCRP to THP-1 cells (THP-1 cells [2]): no significant difference

Molecule: CRP fragment 174-185: defined fragment of CRP, amino acid residues 174-185 of SEQ ID NO: 2 (Sigma) (IYLGGPFSPNVL; human CRP)
inhibition of bCRP binding to THP-1 cells (in words) (THP-1 cells [2]; non-washed assay, fragment 174-185 at 100 μgs (˜128 M solution), not repeated, other fragments up to 200 μgs): appeared to suppress the reaction

Molecule: aggregated CRP: aggregated CRP of a prior report (Zeller et al., 1986)
percent of cells binding (monocytes; monocytes): 70%
percent of cells binding (PMN; PMN stimulated with PMA): 93%
percent of cells binding (PMN; resting PMN): approximately 36%
percent of cells binding (lymphocytes): 8%

Molecule: radiolabeled CRP: radiolabeled CRP of a prior report (Ballou et al., 1989)
Kd [9]: ~100 nM

B1: purified human C-reactive protein (ligand)
chain: QTDMSRKAFVFPKESDTSYVSLKAPLTKPLKAFTVCLHFYTELSSTRGYSIFSYATKRQDNEILIFWSKDIGYSFTVGGSEILFEVPEVTVAPVHICTSWESASGIVEFWVDGKPRVRKSLKKGYTVGAEASIILGQEQDSFGGNFEGSQSLVGDIGNVNMWDFVLSPDEINTIYLGGPFSPNVLNWRALKYEVQGEVFTKPQLWP
percent inhibition [10]: 86%

Further lines, with some results ahead:

inhibition of bCRP binding to peripheral blood monocytes [1]: ~86%
Molecule: CRP: purified human C-reactive protein, pentameric pentraxin of 206 amino acid subunits (SEQ ID NO: 2), used unlabeled as inhibitor
point at which 50% of the binding was inhibited (amount) (THP-1 cells [2]; non-washed assay, bCRP approximately 1 μg/mL): 0.72 μgs

IC50 [3]: 0.0087 nM
Molecule: Limulus CRP (from UniProt P06205 25-242) (ligand)

binding of bCRP ([4]; monocyte subset, dual CD14+CD16+): bound very little bCRP
normal range of CRP binding by monocytes ([4]; normal donors): 49-90%
percentage of binding (monocytes) ([4]; one-step bCRP:SA-DTAF complex): 84.6%
average percent positive values of bCRP binding, monocytes gated by light scatter ([4]; six freshly drawn normal donors, 30-60 minutes after collection): approximately 70%
percentage of binding (monocytes) ([4]; two-step method with wash after primary incubation): 85.8%
Molecule: bCRP: purified human C-reactive protein labeled with biotin, detected with streptavidin conjugated fluorescein derivative (SA-DTAF)
RFI (Relative Fluorescent Index, bCRP MdX / bHSA MdX) (KG-1a cells): 1.2
RFI (Relative Fluorescent Index, bCRP MdX / bHSA MdX) (U937 cells): 1.3
binding (in words) (Raji cells; B cell line Raji): No binding
RFI (Relative Fluorescent Index, bCRP MdX / bHSA MdX) (Raji cells; washed assay, Raji): under 0.9
RFI (Relative Fluorescent Index, bCRP MdX / bHSA MdX) (Daudi cells): under 0.9
average percent of monocytes binding (monocytes; other reports): 67±12%
binding of bCRP vs negative bHSA control (NK cells (CD56+CD16+)): no binding of bCRP above that of the negative control
binding of bCRP vs negative bHSA control ([4]; monocytes selected by scatter and CD13, CD14 or CD33): definite fluorescent signal above that of the negative control
RFI (HL-60 cells; CTL: HL-60 control for PMA-treated cells (same dilution of DMSO as PMA solvent)): 0.7
RFI (HL-60 cells; DMSO-treated HL-60): 1.0
RFI (HL-60 cells; HL-60 treated with PMA, 48 hours (PMA-48)): 1.2
RFI (HL-60 cells; HL-60 treated with PMA, 72 hours (PMA-72)): 1.5
RFI (HL-60 cells; untreated HL60): 0.6
binding to cells (HL-60 cells; untreated or DMSO-treated HL-60 cells, washed and no-wash systems): negative
RFI (THP-1 cells [5]; THP-1 run at the same time as positive control for the HL-60 induction experiment): 25.1
RFI (Relative Fluorescent Index, bCRP MdX / bHSA MdX) (THP-1 cells [5]; washed assay, THP-1): 14.5
binding of bCRP vs negative bHSA control [6]: no binding of bCRP above that of the negative control
binding of bCRP vs negative bHSA control [7]: no binding of bCRP above that of the negative control
RFI (Relative Fluorescent Index, bCRP MdX / bHSA MdX) (MOLT-4 cells): under 0.9

inhibition of bCRP binding to peripheral blood monocytes [1]: ~77%
Molecule: human SAP: another pentraxin, human Serum Amyloid P, >99% purity

IC50 [3]: 0.15 nM
percent inhibition [8]: 77%
Molecule: human Serum Amyloid P (from UniProt P02743 20-223) (ligand)
